The inhibition is the change of the read-out against control, counted positive when it falls. One may read the IC50 as the concentration that gives 50% inhibition.

Data on 17 molecules can be found in US8822699B2, “Heterocyclic compound and use thereof” (Takeda Pharmaceutical Company Limited, priority 2010, dated 2014).

The test system of assay [1] is Aβ42 (soluble Aβ in hippocampi). The assay can be described thus: Aβ42 in hippocampi of mice after oral administration (Aβ ELISA). Conditions: C57BL/6J mice, 10 mg/kg orally, hippocampi isolated 3 hours after administration, soluble Aβ42 by two-site sandwich ELISA; for inhibition at 10 mg/kg: Mus musculus, po, 3 h, read-out: Aβ42 production inhibitory activity (% inhibition); for Aβ42 production inhibitory activity (% inhibition): 10 mg/kg. The class given is in vivo. The protocol:
C57BL/6J mice (7-10 weeks old) were purchased from CLEA Japan Inc. Mice were housed in groups and kept on a 12 h-light; 12 h-dark schedule. All mice were given ad libitum access to food and water.
Each test compound was reconstituted in solubilization buffer ([DMSO (Wako)]: [10% Cremophor (Nakarai)+30% polyethylene glycol 400 (Wako)+60% 2 mol/L Citrate buffer (Wako)]=1:9) and orally administrated at 10 mg/kg.
Hippocampi was isolated from animals, 3 hours after test compounds were orally administrated. Hippocampi were homogenized in ice-cold Tris-extraction buffer (50 mmol/L Tris-HCl, pH 7.2, 200 mmol/L sodium chloride, 2% protease-free bovine serum albumin, and 0.01% sodium merthiolate) containing protease inhibitor cocktails (Roche, Switzerland). After centrifugation at 15,000 rpm for 15 minutes, the supernatants were subjected to two-site sandwich ELISA to measure amount of soluble Aβ. Aβ42 was quantitated by two-site sandwich ELISA using BNT77, which recognizes Aβ11-28, as a capture antibody and BC05-HRP as a detector antibody, respectively.

The test system of assay [2] is Aβ42 production in primary nerve cells. In words: Measurement of amyloid β production inhibition rate using primary nerve cell (Aβ42 sandwich ELISA). The class given is cell-based. The note with it: primary nerve cells from cerebral cortex of SD rat fetus, cultured 3 days with compound, culture supernatant, sandwich ELISA for Aβ42, read-out: Aβ42 production inhibitory activity IC50. The protocol: Measurement of Amyloid β Production Inhibition Rate Using Primary Nerve Cell
The primary nerve cells were collected from the cerebral cortex of rat fetus (CLEA Japan, Inc.: SD rat, fetal life 17 days of age), and suspended in a neurobasal medium containing B27 supplement, L-glutamine, penicillin-streptomycin (manufactured by Invitrogen) at 500,000 cells/mL. Then, the suspension was seeded in poly L-lysine-coated 96 well plate (manufactured by SUMITOMO BAKELITE) by 100 μL, and cultured at 37° C., 5% CO2 for 7 days. The medium was completely removed, and a new neurobasal medium was added at 75 μL/well. Thereto was added (75 μL/well) a neurobasal medium supplemented with a 2-fold measurement concentration of an evaluation target compound, and the mixture was cultured for 3 days. The culture supernatant was collected from each well, diluted as appropriate, applied to sandwich ELISA between BNT77 antibody-BA27 antibody (for Aβ40) and sandwich ELISA between BNT77 antibody-3005 antibody (for Aβ42), and the amounts of Aβ40 and Aβ42 were measured.
The amyloid β production inhibition rate (%) of the compound was calculated by the following formula. (1−(amyloid β production amount with addition of compound)/(amyloid β production amount without addition of compound))×100
The amyloid β production 50% inhibitory rate (IC50 value) was calculated using the statistical analysis software (SAS Preclinical Package) as the concentration of the compound showing 50% inhibition when the amyloid β production amount without addition of the compound is 100%. In addition, a new neurobasal medium was added (75 μL/well) to the cells after collection of the culture supernatant, and the cells were left standing for about 30 min to reach room temperature. Cell-Titer Glo Luminescent Cell Viability Assay (manufactured by Promega) was added at 75 μL/well, and the plate was shaken for 2 min and reacted for about 10 min.
On the technique in general: In an ELISA, binding on a coated surface is turned into a signal by an enzyme label.

Molecules are shown by their SMILES. Where two headings read alike, the source gives them in different places.

In the case of `COc1nc(-c2nnc3n2CCCC3(Oc2ccc(Cl)c(F)c2)C(C)(C)O)ccc1-n1cnc(C)c1` (centres unmarked) [Example 1, 2-{8-(4-chloro-3-fluorophenoxy)-3-[6-methoxy-5-(4-methyl-1H-imidazol-1-yl)pyridin-2-yl]-5,6,7,8-tetrahydro[1,2,4]triazolo[4,3-a]pyridin-8-yl}propan-2-ol], the inhibition at 10 mg/kg in assay [1] came to 40%. For the same molecule, the IC50 in assay [2] (Rattus norvegicus, 72 h) is 0.027 µM.
`COc1nc(-c2nnc3n2CCCC3(Oc2ccc(F)c(C(F)(F)F)c2)C(C)(C)O)ccc1-n1cnc(C)c1` (centres unmarked) [Example 2, 2-{8-[4-fluoro-3-(trifluoromethyl)phenoxy]-3-[6-methoxy-5-(4-methyl-1H-imidazol-1-yl)pyridin-2-yl]-5,6,7,8-tetrahydro[1,2,4]triazolo[4,3-a]pyridin-8-yl}propan-2-ol]: the “Aβ42 production inhibitory activity (% inhibition)” value in assay [1] amounted to 48%. Also, in assay [2], the IC50 stood at 0.019 µM.
In the case of `COc1cc(-c2nnc3n2CCCC3(CC2CC2)c2ccc(F)c(F)c2)ccc1-c1cnc(C)o1` (centres unmarked) [Example 21, optically active 8-(cyclopropylmethyl)-8-(3,4-difluorophenyl)-3-[3-methoxy-4-(2-methyl-1,3-oxazol-5-yl)phenyl]-5,6,7,8-tetrahydro[1,2,4]triazolo[4,3-a]pyridine], the inhibition at 10 mg/kg in assay [1] was 39%. In addition, the 50% inhibitory concentration (IC50) in assay [2] was 0.005 µM.
With `COc1cc(-c2nnc3n2CCCC3(Oc2ccc(F)c(F)c2)C(C)(C)O)ccc1-c1cnc(C)o1` (centres unmarked) [Example 92, 2-{8-(3,4-difluorophenoxy)-3-[3-methoxy-4-(2-methyl-1,3-oxazol-5-yl)phenyl]-5,6,7,8-tetrahydro[1,2,4]triazolo[4,3-a]pyridin-8-yl}propan-2-ol], the “Aβ42 production inhibitory activity (% inhibition)” value in assay [1] is 32%. In assay [2] (Rattus norvegicus, 72 h), the IC50 turned out to be 0.059 µM.
In the case of `COc1cc(-c2nnc3n2CCCC3(Oc2cc(F)c(F)c(F)c2)C(C)(C)O)ccc1-c1cnc(C)o1` (centres unmarked) [Example 99, 2-{3-[3-methoxy-4-(2-methyl-1,3-oxazol-5-yl)phenyl]-8-(3,4,5-trifluorophenoxy)-5,6,7,8-tetrahydro[1,2,4]triazolo[4,3-a]pyridin-8-yl}propan-2-ol], in assay [1], the inhibition at 10 mg/kg is 34%. Also, the IC50 in assay [2] (Rattus norvegicus, 72 h) amounted to 0.02 µM.
For `COc1cc(-c2nnc3n2CCCC3(Oc2cccc(C(F)(F)F)c2)C(C)(C)O)ccc1-c1cnc(C)o1` (centres unmarked) [Example 103, 2-{3-[3-methoxy-4-(2-methyl-1,3-oxazol-5-yl)phenyl]-8-[3-(trifluoromethyl)phenoxy]-5,6,7,8-tetrahydro[1,2,4]triazolo[4,3-a]pyridin-8-yl}propan-2-ol], the inhibition at 10 mg/kg in assay [1] was found to be 42%. In addition, the IC50 in assay [2] (Rattus norvegicus, 72 h) is 0.041 µM.
`COc1cc(-c2nnc3n2CCCC3(Oc2ccc(C(F)(F)F)cc2)C(C)(C)O)ccc1-c1cnc(C)o1` (centres unmarked) [Example 104, 2-{3-[3-methoxy-4-(2-methyl-1,3-oxazol-5-yl)phenyl]-8-[4-(trifluoromethyl)phenoxy]-5,6,7,8-tetrahydro[1,2,4]triazolo[4,3-a]pyridin-8-yl}propan-2-ol]: the “Aβ42 production inhibitory activity (% inhibition)” value in assay [1] turned out to be 36%. Also, the IC50 in assay [2] stood at 0.041 µM.
Consider `COc1cc(-c2nnc3n2CCCC3(Oc2ccc(Cl)c(F)c2)C(C)(C)O)ccc1-c1cnc(C)o1` (centres unmarked) [Example 111, 2-{8-(4-chloro-3-fluorophenoxy)-3-[3-methoxy-4-(2-methyl-1,3-oxazol-5-yl)phenyl]-5,6,7,8-tetrahydro[1,2,4]triazolo[4,3-a]pyridin-8-yl}propan-2-ol], for which the inhibition at 10 mg/kg in assay [1] was 46%. Besides, the IC50 in assay [2] was 0.01 µM.
For the molecule `CCC(O)(CC)C1(Oc2ccc(Cl)c(F)c2)CCCn2c(-c3ccc(-c4cnc(C)o4)c(OC)c3)nnc21` (centres unmarked) [Example 120, 3-{8-(4-chloro-3-fluorophenoxy)-3-[3-methoxy-4-(2-methyl-1,3-oxazol-5-yl)phenyl]-5,6,7,8-tetrahydro[1,2,4]triazolo-[4,3-a]pyridin-8-yl}pentan-3-ol], in assay [1], the inhibition at 10 mg/kg came to 21%. The IC50 in assay [2] (Rattus norvegicus, 72 h) came to 0.004 µM.
For the molecule `COc1cc(-c2nnc3n2CCC[C@]3(Oc2cc(F)c(F)c(F)c2)C(C)(C)O)ccc1-c1cnc(C)o1` [Example 122, 2-{(8R)-3-[3-methoxy-4-(2-methyl-1,3-oxazol-5-yl)phenyl]-8-(3,4,5-trifluorophenoxy)-5,6,7,8-tetrahydro[1,2,4]triazolo[4,3-a]pyridin-8-yl}propan-2-ol], the inhibition at 10 mg/kg in assay [1] came out at 54%. In addition, the IC50 in assay [2] (Rattus norvegicus, 72 h) worked out at 0.019 µM.
Consider `COc1cc(-c2nnc3n2CCCC3(Oc2ccc(F)c(F)c2)C(C)(C)O)ccc1-c1cnc(C)o1` (centres unmarked) [Example 124, 2-{8-(3,4-difluorophenoxy)-3-[3-methoxy-4-(2-methyl-1,3-oxazol-5-yl)phenyl]-5,6,7,8-tetrahydro[1,2,4]triazolo[4,3-a]pyridin-8-yl}propan-2-ol], for which the inhibition at 10 mg/kg in assay [1] amounted to 41%. Also, the IC50 in assay [2] was found to be 0.068 µM.
Regarding `COc1cc(-c2nnc3n2CCCC3(COc2ccc(Cl)cc2)C(C)(C)O)ccc1-c1cnc(C)o1` (centres unmarked) [Example 127, 2-{8-[(4-chlorophenoxy)methyl]-3-[3-methoxy-4-(2-methyl-1,3-oxazol-5-yl)phenyl]-5,6,7,8-tetrahydro[1,2,4]triazolo[4,3-a]pyridin-8-yl}propan-2-ol], the inhibition at 10 mg/kg in assay [1] was found to be 21%. In assay [2] (Rattus norvegicus, 72 h), the IC50 came out at 0.044 µM.
For `COc1cc(-c2nnc3n2CCCC3(Nc2cc(F)c(F)c(F)c2)C(C)(C)O)ccc1-c1cnc(C)o1` (centres unmarked) [Example 181, 2-{3-[3-methoxy-4-(2-methyl-1,3-oxazol-5-yl)phenyl]-8-[(3,4,5-trifluorophenyl)amino]-5,6,7,8-tetrahydro[1,2,4]triazolo[4,3-a]pyridin-8-yl}propan-2-ol], the IC50 in assay [2] (Rattus norvegicus, 72 h) was 0.058 µM.
As to `COc1nc(-c2nnc3n2CCC[C@]3(Oc2cc(F)c(F)c(F)c2)C(C)(C)O)ccc1-n1cnc(C)c1` [Example 187, 2-{(8R)-3-[6-methoxy-5-(4-methyl-1H-imidazol-1-yl)pyridin-2-yl]-8-(3,4,5-trifluorophenoxy)-5,6,7,8-tetrahydro[1,2,4]triazolo[4,3-a]pyridin-8-yl}propan-2-ol 1(+)-mandelate], in assay [2], the IC50 is 0.029 µM.
Consider `COc1cc(-c2nnn3c2CCCC3(Oc2cc(F)c(F)c(F)c2)C(C)(C)O)ccc1-c1cnc(C)o1` (centres unmarked) [Example 191, optically active 2-{3-[3-methoxy-4-(2-methyl-1,3-oxazol-5-yl)phenyl]-7-(3,4,5-trifluorophenoxy)-4,5,6,7-tetrahydro[1,2,3]triazolo[1,5-a]pyridin-7-yl}propan-2-ol], for which the half-maximal inhibitory concentration (IC50) in assay [2] came to 0.008 µM.
In the case of `COc1nc(-c2nnc3n2CCC[C@]3(Oc2cc(F)c(F)c(F)c2)C(C)(C)O)ccc1-n1cnc(C)c1` [Example 194, 2-{(8R)-3-[6-methoxy-5-(4-methyl-1H-imidazol-1-yl)pyridin-2-yl]-8-(3,4,5-trifluorophenoxy)-5,6,7,8-tetrahydro[1,2,4]triazolo[4,3-a]pyridin-8-yl}propan-2-ol 0.67 phosphate], the IC50 in assay [2] is 0.033 µM.
As to `COc1nc(-c2nnc3n2CCC[C@]3(Oc2cc(F)c(F)c(F)c2)C(C)(C)O)ccc1-n1cnc(C)c1` [Example 197, 2-{(8R)-3-[6-methoxy-5-(4-methyl-1H-imidazol-1-yl)pyridin-2-yl]-8-(3,4,5-trifluorophenoxy)-5,6,7,8-tetrahydro[1,2,4]triazolo[4,3-a]pyridin-8-yl}propan-2-ol monogentisate], the IC50 in assay [2] stood at 0.03 µM.
